Experimental data as given in patent publication US9351955B2, “Compounds and pharmaceutical compositions thereof for the treatment of cystic fibrosis” (Galapagos NV, priority 2013, dated 2016).

What was measured:
CFTR ΔF508 mutant = biological target: T1, CFTR ΔF508 mutant (Homo sapiens, UniProt P13569, DEL508-508); test: YFP-halide influx assay for the CFTR-ΔF508 mutation (384 well, CFBE41o- cells, FDSS/μCell); assay type: cell-based; conditions: forskolin 10.67 μM, fluorescence after 36 seconds, read-out: EC50 measured by YFP-halide influx assay for the CFTR-ΔF508
T1 construct: expressed in transfected cells; host or cells: CFBE41o- (adenoviral transduction)
T1 sequence (P13569 with tags, fused parts or gaps DEL508-508): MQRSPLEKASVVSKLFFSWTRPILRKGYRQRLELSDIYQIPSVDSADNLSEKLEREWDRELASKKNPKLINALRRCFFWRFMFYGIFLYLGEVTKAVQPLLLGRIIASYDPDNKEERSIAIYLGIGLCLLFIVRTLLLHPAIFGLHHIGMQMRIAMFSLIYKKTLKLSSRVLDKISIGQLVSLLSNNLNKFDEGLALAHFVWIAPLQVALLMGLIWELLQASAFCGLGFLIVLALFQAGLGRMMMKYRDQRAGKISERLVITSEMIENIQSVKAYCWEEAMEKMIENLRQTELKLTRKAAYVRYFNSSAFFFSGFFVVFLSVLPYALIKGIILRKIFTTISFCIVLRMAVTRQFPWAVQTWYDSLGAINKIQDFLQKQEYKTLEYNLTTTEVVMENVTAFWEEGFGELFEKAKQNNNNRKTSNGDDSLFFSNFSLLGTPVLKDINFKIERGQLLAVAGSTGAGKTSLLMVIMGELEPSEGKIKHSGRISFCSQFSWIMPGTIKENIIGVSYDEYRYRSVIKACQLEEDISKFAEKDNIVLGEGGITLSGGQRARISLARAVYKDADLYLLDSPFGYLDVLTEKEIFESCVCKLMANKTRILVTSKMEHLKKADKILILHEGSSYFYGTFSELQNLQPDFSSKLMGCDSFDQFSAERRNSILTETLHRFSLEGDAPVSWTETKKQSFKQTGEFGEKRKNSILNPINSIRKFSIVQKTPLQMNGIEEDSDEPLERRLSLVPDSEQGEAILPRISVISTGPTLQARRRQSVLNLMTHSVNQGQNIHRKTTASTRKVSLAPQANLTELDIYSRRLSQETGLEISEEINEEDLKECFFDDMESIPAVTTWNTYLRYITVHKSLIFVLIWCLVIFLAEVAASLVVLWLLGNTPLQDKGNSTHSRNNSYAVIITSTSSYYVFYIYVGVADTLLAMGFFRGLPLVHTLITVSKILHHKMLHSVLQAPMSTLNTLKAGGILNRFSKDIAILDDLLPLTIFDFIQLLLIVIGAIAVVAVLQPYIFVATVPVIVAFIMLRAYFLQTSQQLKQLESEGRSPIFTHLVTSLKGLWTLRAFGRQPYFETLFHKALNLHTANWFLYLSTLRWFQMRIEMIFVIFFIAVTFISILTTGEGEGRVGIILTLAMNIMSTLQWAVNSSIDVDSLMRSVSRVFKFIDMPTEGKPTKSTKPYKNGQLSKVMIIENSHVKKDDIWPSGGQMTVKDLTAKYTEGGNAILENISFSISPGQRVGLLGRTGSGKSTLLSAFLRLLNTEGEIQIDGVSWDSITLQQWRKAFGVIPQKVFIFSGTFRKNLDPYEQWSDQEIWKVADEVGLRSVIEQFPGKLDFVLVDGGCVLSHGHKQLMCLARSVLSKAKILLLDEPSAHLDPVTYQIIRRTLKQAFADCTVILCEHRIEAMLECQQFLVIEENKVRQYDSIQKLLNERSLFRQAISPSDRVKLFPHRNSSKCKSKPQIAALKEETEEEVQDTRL
Source text: 6.2. YFP-Halide Influx Assay for the CFTR-ΔF508 Mutation
The YFP halide influx assay measures the functionality of the cystic fibrosis Transmembrane Conductance regulator (CFTR) channels in the cystic fibrosis bronchial epithelium cell line CFBE41o-. The assay is used to evaluate the capacity of compounds to increase the open probability of existing CFTR channels in the membrane. It makes use of the observation that the yellow fluorescent protein (YFP) variant YFP H148Q, I152L has its fluorescence substantially quenched by halide ions like Cl— and I— (Galietta et al., 2001; Nagai et al., 2002).
For this purpose, CFBE410-cells are seeded in 384 well plates (3000 CFBE cells/well). One day after seeding, the CFBE cells are transduced with adenoviral vectors that direct the expression of the CFTR ΔF508 mutant and of the YFP reporter. Cells are incubated at 27° C., 5% CO2 for 24 hours so as to allow for the proper folding and migration to the membrane of the CFTR channel or treated with a CFTR modulator during 24 h at 37° C.
(§1) The I— induced quenching of fluorescence is recorded on an immediately after injection of I— for 2 min on an FDSS/μCell (Hamamatsu). The capacity of a compound to increase the channel opening is directly correlated with the decrease in fluorescence, and is expressed as (1−(fluorescence after 36 seconds (F)/fluorescence before injection (F0))) and an EC50 can be derived from a (1−F/F0) vs compound concentration plot.

CFTR G551D mutant = biological target: T2, CFTR G551D mutant (Homo sapiens, UniProt P13569, G551D); test: YFP-halide influx assay for the CFTR-G551D mutation (HEK293 cells); assay type: cell-based; conditions: HEK293 cells expressing CFTR G551D and YFP reporter; forskolin 10.67 μM; read-out: EC50 measured by YFP-halide influx assay for the CFTR-G551D
T2 construct: expressed in transfected cells; host or cells: HEK293 (reverse transfection with plasmids)
T2 sequence (P13569 whole entry G551D): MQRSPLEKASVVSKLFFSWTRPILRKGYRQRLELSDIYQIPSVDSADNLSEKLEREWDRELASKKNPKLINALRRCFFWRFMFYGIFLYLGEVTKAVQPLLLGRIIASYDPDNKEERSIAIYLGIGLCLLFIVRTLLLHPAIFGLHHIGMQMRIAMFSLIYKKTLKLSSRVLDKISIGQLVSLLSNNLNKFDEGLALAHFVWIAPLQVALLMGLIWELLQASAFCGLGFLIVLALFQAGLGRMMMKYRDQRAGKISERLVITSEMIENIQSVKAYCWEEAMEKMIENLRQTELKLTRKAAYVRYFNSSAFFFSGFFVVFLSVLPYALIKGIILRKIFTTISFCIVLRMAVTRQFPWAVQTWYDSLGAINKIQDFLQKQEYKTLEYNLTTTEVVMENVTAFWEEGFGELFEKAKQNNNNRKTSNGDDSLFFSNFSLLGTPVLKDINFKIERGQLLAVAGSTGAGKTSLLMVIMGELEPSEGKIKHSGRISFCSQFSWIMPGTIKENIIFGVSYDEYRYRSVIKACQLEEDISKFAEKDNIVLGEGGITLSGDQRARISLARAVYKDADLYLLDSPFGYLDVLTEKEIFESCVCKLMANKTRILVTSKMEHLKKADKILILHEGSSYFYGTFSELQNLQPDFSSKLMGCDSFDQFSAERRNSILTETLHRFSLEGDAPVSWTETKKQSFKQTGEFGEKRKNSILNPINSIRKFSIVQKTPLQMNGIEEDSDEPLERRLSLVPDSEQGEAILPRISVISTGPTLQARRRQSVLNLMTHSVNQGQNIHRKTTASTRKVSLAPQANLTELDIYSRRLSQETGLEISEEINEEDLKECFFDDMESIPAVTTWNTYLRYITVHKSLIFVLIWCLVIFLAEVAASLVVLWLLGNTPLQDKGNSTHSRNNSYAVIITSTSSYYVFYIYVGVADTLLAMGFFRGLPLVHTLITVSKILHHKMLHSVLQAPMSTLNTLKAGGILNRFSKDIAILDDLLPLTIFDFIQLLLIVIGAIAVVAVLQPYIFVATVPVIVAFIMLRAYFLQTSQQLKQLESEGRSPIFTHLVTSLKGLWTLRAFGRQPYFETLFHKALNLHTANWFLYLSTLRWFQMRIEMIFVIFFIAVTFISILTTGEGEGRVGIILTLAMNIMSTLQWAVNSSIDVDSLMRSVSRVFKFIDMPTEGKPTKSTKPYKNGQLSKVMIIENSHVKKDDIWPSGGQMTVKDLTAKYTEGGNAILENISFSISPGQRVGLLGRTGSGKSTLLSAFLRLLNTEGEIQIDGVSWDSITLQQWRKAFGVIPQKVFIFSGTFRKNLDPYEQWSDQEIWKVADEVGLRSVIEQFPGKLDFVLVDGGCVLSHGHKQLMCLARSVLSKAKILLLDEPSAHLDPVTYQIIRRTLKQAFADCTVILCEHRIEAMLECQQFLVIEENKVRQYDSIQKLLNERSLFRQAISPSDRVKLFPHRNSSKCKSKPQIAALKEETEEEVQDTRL
Source text: 6.3. YFP-Halide Influx Assay for the CFTR-G551D Mutation
The YFP halide influx assay measures the functionality of the cystic fibrosis Transmembrane Conductance regulator (CFTR) channels. The assay is used to evaluate the capacity of compounds to increase the channel opening of existing mutant CFTR channels in the membrane. It makes use of the observation that the yellow fluorescent protein (YFP) variant YFP H148Q, I152L, F47L has its fluorescence substantially quenched by halide ions like Cl^− and I^−. (Galietta et al., 2001)
For this purpose, HEK293-cells are seeded in 96 well plates. During seeding, the cells are reverse-transfected with plasmid vectors that direct the expression of the CFTR G551D mutant and of the YFP reporter. Cells are incubated at 37° C., 5% CO2 for 24 hours so as to allow for sufficient expression of the CFTR protein.
as §1, with “I^−-induced” for “I— induced”, “recorded” for “recorded on an”, “I^−” for “I—”, “7 seconds.” for “2 min on an FDSS/μCell (Hamamatsu).”, “7” for “36”

Row | SMILES | EC50 (CFTR ΔF508 mutant) [nM] | EC50 (CFTR G551D mutant) [µM]
1 | CC(O)c1cc(C(=O)Nc2sc3c(c2C(N)=O)CC(C)(C)OC3(C)C)n[nH]1 (stereo not shown) [Compound 61, 5-(1-Hydroxy-ethyl)-1H-pyrazole-3-carboxylic acid (3-carbamoyl-5,5,7,7-tetramethyl-4,7-dihydro-5H-thieno[2,3-c]pyran-2-yl)-amide] | 188 | 4.16
2 | CCOC(=O)C1CC1C(=O)Nc1sc2c(c1C(N)=O)CC(C)(C)OC2(C)C (stereo not shown) [Compound 62, 2-(3-Carbamoyl-5,5,7,7-tetramethyl-4,7-dihydro-5H-thieno[2,3-c]pyran-2-ylcarbamoyl)-cyclopropanecarboxylic acid ethyl ester] | 301 | 3.33
3 | COC/C=C/c1c[nH]nc1C(=O)Nc1sc2c(c1C(N)=O)CC(C)(C)OC2(C)C [Compound 63, N-(3-carbamoyl-5,5,7,7-tetramethyl-4H-thieno[2,3-c]pyran-2-yl)-4-[(E)-3-methoxyprop-1-enyl]-1H-pyrazole-3-carboxamide] | 66.3 | 1.19
4 | CC1(C)Cc2c(sc(NC(=O)c3cc(C(C)(C)O)[nH]n3)c2C(N)=O)C(C)(C)O1 [Compound 64, N-(3-carbamoyl-5,5,7,7-tetramethyl-4H-thieno[2,3-c]pyran-2-yl)-5-(1-hydroxy-1-methyl-ethyl)-1H-pyrazole-3-carboxamide] | 167 | 2.9
5 | CC1(C)Cc2c(sc(NC(=O)CO)c2C(N)=O)C(C)(C)O1 [Compound 66, 2-[(2-hydroxyacetyl)amino]-5,5,7,7-tetramethyl-4H-thieno[2,3-c]pyran-3-carboxamide] | 84 | 3.33
6 | CC(C)C(O)CC(=O)Nc1sc2c(c1C(N)=O)CC(C)(C)OC2(C)C (stereo not shown) [Compound 67, 2-[(3-hydroxy-4-methyl-pentanoyl)amino]-5,5,7,7-tetramethyl-4H-thieno[2,3-c]pyran-3-carboxamide] | 42.7 | 3.33
7 | CC1(C)Cc2c(sc(NC(=O)CC(O)C3CC3)c2C(N)=O)C(C)(C)O1 (stereo not shown) [Compound 68, 2-[(3-cyclopropyl-3-hydroxy-propanoyl)amino]-5,5,7,7-tetramethyl-4H-thieno[2,3-c]pyran-3-carboxamide] | 60 | 3.33
8 | CC(CO)C(=O)Nc1sc2c(c1C(N)=O)CC(C)(C)OC2(C)C (stereo not shown) [Compound 70, 2-[(3-hydroxy-2-methyl-propanoyl)amino]-5,5,7,7-tetramethyl-4H-thieno[2,3-c]pyran-3-carboxamide] | 176 | 3.33
9 | CC(C)C(CO)C(=O)Nc1sc2c(c1C(N)=O)CC(C)(C)OC2(C)C (stereo not shown) [Compound 74, 2-[[2-(hydroxymethyl)-3-methyl-butanoyl]amino]-5,5,7,7-tetramethyl-4H-thieno[2,3-c]pyran-3-carboxamide] | 82.6 | 3.33
10 | CC1(C)Cc2c(sc(NC(=O)C(CO)C(C)(C)C)c2C(N)=O)C(C)(C)O1 (stereo not shown) [Compound 85, 2-[[2-(hydroxymethyl)-3,3-dimethyl-butanoyl]amino]-5,5,7,7-tetramethyl-4H-thieno[2,3-c]pyran-3-carboxamide] | 93.5 | 3.33
11 | CC1(C)Cc2c(sc(NC(=O)c3n[nH]cc3CO)c2C(N)=O)C(C)(C)O1 [Compound 88, N-(3-carbamoyl-5,5,7,7-tetramethyl-4H-thieno[2,3-c]pyran-2-yl)-4-(hydroxymethyl)-1H-pyrazole-3-carboxamide] | 145 | 1.17
12 | CC1(C)Cc2c(sc(NC(=O)C(CO)C(C)(C)C)c2C(N)=O)C(C)(C)O1 (stereo not shown) [Compound 90, 2-[[2-(hydroxymethyl)-3,3-dimethyl-butanoyl]amino]-5,5,7,7-tetramethyl-4H-thieno[2,3-c]pyran-3-carboxamide] | 120 | 3.2
13 | CC1(C)Cc2c(sc(NC(=O)c3ccn(COP(=O)(O)O)n3)c2C(N)=O)C(C)(C)O1 [Compound 93, [3-[(3-carbamoyl-5,5,7,7-tetramethyl-4H-thieno[2,3-c]pyran-2-yl)carbamoyl]pyrazol-1-yl]methyl dihydrogen phosphate] | 479 | 3.33
14 | COCCOc1c[nH]nc1C(=O)Nc1sc2c(c1C(N)=O)CC(C)(C)OC2(C)C [Compound 100, N-(3-carbamoyl-5,5,7,7-tetramethyl-4H-thieno[2,3-c]pyran-2-yl)-4-(2-methoxyethoxy)-1H-pyrazole-3-carboxamide] | 190 | 2.86
15 | CC1(C)Cc2c(sc(NC(=O)c3ccccc3OC(F)F)c2C(N)=O)C(C)(C)O1 [Compound 113, 2-[[2-(difluoromethoxy)benzoyl]amino]-5,5,7,7-tetramethyl-4H-thieno[2,3-c]pyran-3-carboxamide] | 77.5 | 2.79
16 | CC1(C)Cc2c(sc(NC(=O)c3ccnn3C(F)F)c2C(N)=O)C(C)(C)O1 [Compound 115, N-(3-carbamoyl-5,5,7,7-tetramethyl-4H-thieno[2,3-c]pyran-2-yl)-2-(difluoromethyl)pyrazole-3-carboxamide] | 62.1 | 0.586
17 | CC1(C)Cc2c(sc(NC(=O)c3nn(C(F)F)cc3Cl)c2C(N)=O)C(C)(C)O1 [Compound 116, N-(3-carbamoyl-5,5,7,7-tetramethyl-4H-thieno[2,3-c]pyran-2-yl)-4-chloro-1-(difluoromethyl)pyrazole-3-carboxamide] | 88 | 1.52

Now those with a lower EC50 (CFTR ΔF508 mutant), led by results:

Row | EC50 (CFTR ΔF508 mutant) [nM] | EC50 (CFTR G551D mutant) [µM] | SMILES
18 | 27 | 1.56 | COCCCc1c[nH]nc1C(=O)Nc1sc2c(c1C(N)=O)CC(C)(C)OC2(C)C [Compound 65, N-(3-carbamoyl-5,5,7,7-tetramethyl-4H-thieno[2,3-c]pyran-2-yl)-4-(3-methoxypropyl)-1H-pyrazole-3-carboxamide]
19 | 34.2 | 3.33 | CC1(C)Cc2c(sc(NC(=O)CC(O)C(F)(F)F)c2C(N)=O)C(C)(C)O1 (stereo not shown) [Compound 69, 5,5,7,7-tetramethyl-2-[(4,4,4-trifluoro-3-hydroxy-butanoyl)amino]-4H-thieno[2,3-c]pyran-3-carboxamide]
20 | 20.8 | 0.57 | CC1(C)Cc2c(sc(NC(=O)c3n[nH]cc3C#N)c2C(N)=O)C(C)(C)O1 [Compound 73, N-(3-carbamoyl-5,5,7,7-tetramethyl-4H-thieno[2,3-c]pyran-2-yl)-4-cyano-1H-pyrazole-3-carboxamide]
21 | 6.39 | 3.35 | CC(O)C1(C(=O)Nc2sc3c(c2C(N)=O)CC(C)(C)OC3(C)C)CC1 (stereo not shown) [Compound 78, 2-[[1-[1-hydroxyethyl]cyclopropanecarbonyl]amino]-5,5,7,7-tetramethyl-4H-thieno[2,3-c]pyran-3-carboxamide]
22 | 23.6 | 3.33 | CC(O)C1(C(=O)Nc2sc3c(c2C(N)=O)CC(C)(C)OC3(C)C)CC1 (stereo not shown) [Compound 79, 2-[[1-[1-hydroxyethyl]cyclopropanecarbonyl]amino]-5,5,7,7-tetramethyl-4H-thieno[2,3-c]pyran-3-carboxamide]
23 | 3.23 | 6.67 | CC1(C)Cc2c(sc(NC(=O)C(C)(O)C(C)(C)C)c2C(N)=O)C(C)(C)O1 (stereo not shown) [Compound 81, 2-[(2-hydroxy-2,3,3-trimethyl-butanoyl)amino]-5,5,7,7-tetramethyl-4H-thieno[2,3-c]pyran-3-carboxamide]
24 | 25.4 | 3.33 | CC1(C)Cc2c(sc(NC(=O)C(CO)CC3CC3)c2C(N)=O)C(C)(C)O1 (stereo not shown) [Compound 84, 2-[[2-(cyclopropylmethyl)-3-hydroxy-propanoyl]amino]-5,5,7,7-tetramethyl-4H-thieno[2,3-c]pyran-3-carboxamide]
25 | 28.3 | 1.34 | CC1(C)Cc2c(sc(NC(=O)[C@]3(CO)CC3(C)C)c2C(N)=O)C(C)(C)O1 [Compound 99, 2-[[(1R)-1-(hydroxymethyl)-2,2-dimethyl-cyclopropanecarbonyl]amino]-5,5,7,7-tetramethyl-4H-thieno[2,3-c]pyran-3-carboxamide]
26 | 40.9 | 1.71 | CC1(C)Cc2c(sc(NC(=O)c3ccn(C(F)F)n3)c2C(N)=O)C(C)(C)O1 [Compound 114, N-(3-carbamoyl-5,5,7,7-tetramethyl-4H-thieno[2,3-c]pyran-2-yl)-1-(difluoromethyl)pyrazole-3-carboxamide]
